Results taken from US11566007B2, “Ras inhibitors” (Revolution Medicines, Inc., priority 2019, dated 2023).

Assays:
[1] = system: NCI-H358 cells (K-Ras G12C); assay: Potency assay: pERK in NCI-H358 cells; type: cell-based, human; details: Homo sapiens, NCI-H358; H358 KRAS G12C; read-out: pERK EC50
Outline: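 4 h cpd, 37 °C; 10-pt 3-fold series, 10 mM DMSO top stock, duplicates. Readout pERK: AlphaLISA SureFire Ultra or In-Cell Western (IR-800CW secondary, DRAQ5 DNA stain). IC50, 4-PL fit vs log conc.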

NRAS Q61K = NRAS Q61K (Homo sapiens (Human), UniProt P01111+P62937, Q61K); assay: Ras-Raf (BRAF RBD) disruption / FRET / MOA assay, NRAS Q61K; type: biochemical; details: NRAS Q61K; Ras-Raf disruption/FRET/MOA assay; read-out: IC50* NRAS Q61K FRET data
Sequence of NRAS Q61K (P01111 whole entry Q61K): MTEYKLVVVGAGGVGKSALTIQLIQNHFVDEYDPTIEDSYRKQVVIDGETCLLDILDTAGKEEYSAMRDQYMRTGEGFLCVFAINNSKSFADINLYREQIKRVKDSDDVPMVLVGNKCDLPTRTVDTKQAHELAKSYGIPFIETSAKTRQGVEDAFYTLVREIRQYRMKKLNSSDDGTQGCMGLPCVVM
Sequence of NRAS Q61K (P62937 whole entry): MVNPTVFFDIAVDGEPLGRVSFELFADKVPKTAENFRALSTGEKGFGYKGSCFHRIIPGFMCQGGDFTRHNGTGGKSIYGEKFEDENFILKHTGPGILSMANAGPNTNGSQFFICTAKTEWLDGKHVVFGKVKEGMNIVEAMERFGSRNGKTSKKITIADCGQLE
Outline: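 TR-FRET disruption of nucleotide-loaded Ras binding to BRAF RBD via compound-driven ternary complex with cyclophilin A. Compound as 10-point 3-fold series from 30 μM final, 3 h at 25° C, then anti-His Eu-W1024 (10 nM) and anti-GST allophycocyanin (50 nM) for 1.5 h. IC50 from decreased FRET ratio versus DMSO.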

Row | SMILES | EC50 [1] | IC50 (NRAS Q61K)
1 | CCn1c(-c2cccnc2[C@H](C)OC)c2c3cc(ccc31)-c1csc(n1)C[C@H](NC(=O)CN1CC[C@@]3(CCN(C(=O)C#CC(C)(C)N4CCC4)C3)C1)C(=O)N1CCC[C@H](N1)C(=O)OCC(C)(C)C2 (atropisomer, axis not shown) [Example A364] | < 5000 nM | 1000 to 10000 nM
2 | CCn1c(-c2cccnc2[C@H](C)OC)c2c3cc(ccc31)-c1csc(n1)C[C@H](NC(=O)CCO[C@@H]1CCN(C(=O)C#CC(C)(C)N3CCC3)C1)C(=O)N1CCC[C@H](N1)C(=O)OCC(C)(C)C2 (atropisomer, axis not shown) [Example A366] | < 5000 nM | 1000 to 10000 nM
3 | C=CC(=O)N1CC[C@H](C(=O)N(C)[C@H](C(=O)N[C@H]2Cc3cc(cc(C(F)F)c3)-c3ccc4c(c3)c(c(-c3cccnc3[C@H](C)OC)n4CC(F)(F)F)CC(C)(C)COC(=O)[C@@H]3CCCN(N3)C2=O)C(C)C)C1 (atropisomer, axis not shown) [Example A372] | < 5000 nM | 1000 to 10000 nM
4 | CCn1c(-c2cccnc2[C@H](C)OC)c2c3cc(ccc31)N1CCO[C@@H](C[C@H](NC(=O)[C@@H](COC3CN(C(=O)C#CC(C)(C)N(C)C)C3)C(C)C)C(=O)N3CCC[C@H](N3)C(=O)OCC(C)(C)C2)C1 (atropisomer, axis not shown) [Example A377, (2R)-2-(((1-(4-(dimethylamino)-4-methylpent-2-ynoyl)azetidin-3-yl)oxy)methyl)-N-((2^2S,6^3S,4S)-1^1-ethyl-1^2-(2-((S)-1-methoxyethyl)pyridin-3-yl)-10,10-dimethyl-5,7-dioxo-6^1,6^2,6^3,6^4,6^5,6^6-hexahydro-1^1H-8-oxa-2(4,2)-morpholina-1(5,3)-indola-6(1,3)-pyridazinacycloundecaphane-4-yl)-3-methylbutanamide] | < 5000 nM | > 10000 nM
5 | CO[C@@H](C)c1ncccc1-c1c2c3cc(ccc3n1CC(F)(F)F)-c1csc(n1)C[C@H](NC(=O)CCOC1CN(C(=O)C#CC(C)(C)N(C)C)C1)C(=O)N1CCC[C@H](N1)C(=O)OCC(C)(C)C2 (atropisomer, axis not shown) [Example A380] | < 5000 nM | 1000 to 10000 nM
6 | C=CC(=O)N1C[C@H](C)N(C(=O)N(C)[C@H](C(=O)N[C@H]2Cc3nc(cs3)-c3ccc4c(c3)c(c(-c3cccnc3[C@H](C)OC)n4CC)CC(C)(C)COC(=O)[C@@H]3CCCN(N3)C2=O)C(C)C)[C@@H](C)C1 (atropisomer, axis not shown) [Example A386] | < 5000 nM | 10 to 100 nM
7 | C=CC(=O)N1C[C@@H](C)N(C(=O)N(C)[C@H](C(=O)N[C@H]2Cc3nc(cs3)-c3ccc4c(c3)c(c(-c3cccnc3[C@H](C)OC)n4CC)CC(C)(C)COC(=O)[C@@H]3CCCN(N3)C2=O)C(C)C)[C@@H](C)C1 (atropisomer, axis not shown) [Example A387] | < 5000 nM | 10 to 100 nM
8 | C=CC(=O)N1CC2(CCN(C(=O)N(C)[C@H](C(=O)N[C@H]3Cc4nc(cs4)-c4ccc5c(c4)c(c(-c4cccnc4[C@H](C)OC)n5CC)CC(C)(C)COC(=O)[C@@H]4CCCN(N4)C3=O)C(C)C)CC2)C1 (atropisomer, axis not shown) [Example A394] | < 5000 nM | 10 to 100 nM
9 | C=CC(=O)N1CCN(C(=O)N(C)[C@H](C(=O)N[C@H]2Cc3nc(cs3)-c3ccc4c(c3)c(c(-c3cccnc3[C@H](C)OC)n4CC)CC(C)(C)COC(=O)[C@@H]3CCCN(N3)C2=O)C(C)C)CC12CC2 (atropisomer, axis not shown) [Example A417] | < 5000 nM | 10 to 100 nM
10 | CCn1c(-c2cccnc2[C@H](C)OC)c2c3cc(ccc31)-c1csc(n1)C[C@H](NC(=O)CCOC1CN(C(=O)C#CC(C)(C)N(C)C)C1)C(=O)N1CCC[C@H](N1)C(=O)OCC(C)(C)C2 (atropisomer, axis not shown) [Example A427, 3-((1-(4-(dimethylamino)-4-methylpent-2-ynoyl)azetidin-3-yl)oxy)-N-((6^3S,4S,Z)-1^1-ethyl-1^2-(2-((S)-1-methoxyethyl)pyridin-3-yl)-10,10-dimethyl-5,7-dioxo-6^1,6^2,6^3,6^4,6^5,6^6-hexahydro-1^1H-8-oxa-2(4,2)-thiazola-1(5,3)-indola-6(1,3)-pyridazinacycloundecaphane-4-yl)propanamide] | < 5000 nM | 1000 to 10000 nM
11 | C=CC(=O)N1CC[C@H](C(=O)N(C)[C@H](C(=O)N[C@H]2Cc3cccc(c3)-c3ccc4c(c3)c(c(-c3cc5c(nc3[C@H](C)OC)CCN(C)C5)n4CC)CC(C)(C)COC(=O)[C@@H]3CCCN(N3)C2=O)C(C)C)C1 (atropisomer, axis not shown) [Example A461] | < 5000 nM | 1000 to 10000 nM
12 | C=CC(=O)N(C)C1CN(C(=O)N(C)[C@H](C(=O)N[C@H]2Cc3nc(cs3)-c3ccc4c(c3)c(c(-c3cccnc3[C@H](C)OC)n4CC)CC(C)(C)COC(=O)[C@@H]3CCCN(N3)C2=O)C(C)C)C1 (atropisomer, axis not shown) [Example A463] | < 5000 nM | 10 to 100 nM
13 | C=CC(=O)N1CC[C@H](C(=O)N(C)[C@H](C(=O)N[C@H]2Cc3nc(cs3)-c3ccc4c(c3)c(c(-c3cc5c(nc3[C@H](C)OC)CCN(C)C5)n4CC)CC(C)(C)COC(=O)[C@@H]3CCCN(N3)C2=O)C(C)C)C1 (atropisomer, axis not shown) [Example A472] | < 5000 nM | 1000 to 10000 nM
14 | C=CC(=O)N1CC[C@H](C(=O)N(C)[C@H](C(=O)N[C@H]2Cc3cc(C)cc(c3)-c3ccc4c(c3)c(c(-c3cccnc3[C@H](C)OC)n4CC)CC(C)(C)COC(=O)[C@@H]3CCCN(N3)C2=O)C(C)C)C1 (atropisomer, axis not shown) [Example A498] | < 5000 nM | 1000 to 10000 nM
15 | C=CC(=O)N1CC[C@H](C(=O)N(C)[C@H](C(=O)N[C@H]2Cc3cccc(c3)-c3ccc4c(c3)c(c(-c3cccnc3[C@H](C)OC)n4CC#CC)CC(C)(C)COC(=O)[C@@H]3CCCN(N3)C2=O)C(C)C)C1 (atropisomer, axis not shown) [Example A531] | < 5000 nM | 1000 to 10000 nM
16 | C=CC(=O)N1CCOC2(C1)CN(C(=O)N(C)[C@H](C(=O)N[C@H]1Cc3cccc(c3)-c3ccc4c(c3)c(c(-c3cccnc3[C@H](C)OC)n4CC(F)(F)F)CC(C)(C)COC(=O)[C@@H]3CCCN(N3)C1=O)C(C)C)C2 (atropisomer, axis not shown) [Example A538] | < 5000 nM | 100 to 1000 nM
17 | CO[C@@H](C)c1ncccc1-c1c2c3cc(ccc3n1CC(F)(F)F)-c1cccc(c1)C[C@H](NC(=O)[C@H](C(C)C)N(C)C(=O)N1CCC3(CC1)CN(C(=O)/C=C/CN(C)C)C3)C(=O)N1CCC[C@H](N1)C(=O)OCC(C)(C)C2 (atropisomer, axis not shown) [Example A555] | < 5000 nM | 100 to 1000 nM
18 | CCn1c(-c2cccnc2[C@H](C)OC)c2c3cc(ccc31)-c1cccc(c1)C[C@H](NC(=O)[C@H](C(C)C)N1CC[C@@]3(CCN(C(=O)C#C[C@H]4COCCN4C4COC4)C3)C1=O)C(=O)N1CCC[C@H](N1)C(=O)OCC(C)(C)C2 (atropisomer, axis not shown) [Example A567] | < 5000 nM | 1000 to 10000 nM
19 | C=CC(=O)N1CCO[C@H]2CN(C(=O)N(C)[C@H](C(=O)N[C@H]3Cc4coc(n4)-c4ccc5c(c4)c(c(-c4cccnc4[C@H](C)OC)n5CC(F)(F)F)CC(C)(C)COC(=O)[C@@H]4CCCN(N4)C3=O)C(C)C)C[C@H]21 (atropisomer, axis not shown) [Example A574] | < 5000 nM | 100 to 1000 nM
20 | C=CC(=O)N1C[C@@H](N(C)C(=O)N(C)[C@H](C(=O)N[C@H]2Cc3nc(cs3)-c3ccc4c(c3)c(c(-c3cccnc3[C@H](C)OC)n4CC)CC(C)(C)COC(=O)[C@@H]3CCCN(N3)C2=O)C(C)C)[C@@H](C)C1 (atropisomer, axis not shown) [Example A583] | < 5000 nM | 100 to 1000 nM
21 | C=CC(=O)N1C[C@H](C)N(C(=O)N(C)[C@H](C(=O)N[C@H]2Cc3nc(cs3)-c3ccc4c(c3)c(c(-c3cccnc3[C@H](C)OC)n4CC)CC(C)(C)COC(=O)[C@@H]3CCCN(N3)C2=O)C(C)C)CC12CC2 (atropisomer, axis not shown) [Example A586] | < 5000 nM | 100 to 1000 nM
22 | C=CC(=O)N1C[C@@H](C)[C@H](N(C)C(=O)N(C)[C@H](C(=O)N[C@H]2Cc3nc(cs3)-c3ccc4c(c3)c(c(-c3cccnc3[C@H](C)OC)n4CC)CC(C)(C)COC(=O)[C@@H]3CCCN(N3)C2=O)C(C)C)C1 (atropisomer, axis not shown) [Example A588] | < 5000 nM | 100 to 1000 nM
23 | C=CC(=O)Nc1cnc(OC[C@H](C(=O)N[C@H]2Cc3cccc(c3)-c3ccc4c(c3)c(c(-c3cccnc3[C@H](C)OC)n4CC)CC(C)(C)COC(=O)[C@@H]3CCCN(N3)C2=O)C(C)C)n1C (atropisomer, axis not shown) [Example A600] | < 5000 nM | 1000 to 10000 nM
24 | C=CC(=O)N1CCOC2(C1)CN(C(=O)N(C)[C@H](C(=O)N[C@H]1Cc3nc(cs3)-c3ccc4c(c3)c(c(-c3cccnc3[C@H](C)OC)n4CC(F)(F)F)CC(C)(C)COC(=O)[C@@H]3CCCN(N3)C1=O)C(C)C)C2 (atropisomer, axis not shown) [Example A604] | < 5000 nM | 100 to 1000 nM
25 | C=CC(=O)N1CCOC2(CCN(C(=O)N(C)[C@H](C(=O)N[C@H]3Cc4cc(CF)cc(c4)-c4ccc5c(c4)c(c(-c4cccnc4[C@H](C)OC)n5CC(F)(F)F)CC(C)(C)COC(=O)[C@@H]4CCCN(N4)C3=O)C(C)C)CC2)C1 (atropisomer, axis not shown) [Example A605] | < 5000 nM | 100 to 1000 nM
26 | C=CC(=O)N1CCOC2(CCN(C(=O)N(C)[C@H](C(=O)N[C@H]3Cc4cccc(c4)-c4ccc5c(c4)c(c(-c4cccnc4[C@H](C)OC)n5CC(F)(F)F)CC(C)(C)COC(=O)[C@@H]4CCCN(N4)C3=O)C(C)C)CC2)C1 (atropisomer, axis not shown) [Example A608] | < 5000 nM | 100 to 1000 nM
